Results on five compounds are retold here after article PMC9088703 (RSC Advances, 2018).

In data set [1] the target is T1, BSA (Bos taurus, UniProt P02769). It counts as in vitro ADME, bovine. The settings on record: for Effect on the plasma protein binding of metoprolol: BSA, metoprolol 0.5, 1 and 2 μg mL^−1, statistical results (p > 0.05); for fraction unbound at 60 min, 0.5 μg mL^−1 / fraction unbound at 60 min, 1 μg mL^−1 / fraction unbound at 60 min, 2 μg mL^−1: bovine, BSA solution.

The nature of data set [2]: Nonspecific binding. It counts as in vitro ADME. As to conditions: concentration recovered after ultrafiltration.
Data set [3] deals with plasma protein. As to conditions: in humans; cited from earlier work.
Data set [4] addresses T1, BSA. Description: Plasma protein binding of metoprolol in BSA by ultrafiltration and UPLC. As to conditions: for C f: total free concentration in filtrate. In kind it is in vitro ADME, bovine.

Like-named read-outs stand apart in the source and are kept apart here.

T1 sequence (P02769 25-607): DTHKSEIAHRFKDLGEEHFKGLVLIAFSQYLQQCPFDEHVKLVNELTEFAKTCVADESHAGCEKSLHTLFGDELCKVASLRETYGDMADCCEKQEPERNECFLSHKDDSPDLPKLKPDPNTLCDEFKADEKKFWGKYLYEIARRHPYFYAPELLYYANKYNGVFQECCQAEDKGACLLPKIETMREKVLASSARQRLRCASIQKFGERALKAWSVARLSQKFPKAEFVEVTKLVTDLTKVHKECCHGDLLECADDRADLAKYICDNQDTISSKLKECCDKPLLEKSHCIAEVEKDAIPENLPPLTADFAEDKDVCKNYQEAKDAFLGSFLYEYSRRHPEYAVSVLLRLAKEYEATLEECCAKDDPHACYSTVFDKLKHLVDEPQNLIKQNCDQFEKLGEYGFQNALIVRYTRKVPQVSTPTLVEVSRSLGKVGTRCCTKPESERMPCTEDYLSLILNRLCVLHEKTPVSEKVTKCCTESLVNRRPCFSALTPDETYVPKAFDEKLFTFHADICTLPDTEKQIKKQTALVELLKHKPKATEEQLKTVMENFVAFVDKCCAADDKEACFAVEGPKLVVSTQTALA

Consider `C=C1CCC[C@]2(C)C[C@]3(O)OC(=O)C(C)=C3C[C@@H]12` [Atractylenolide III, atractylenolide III], for which, in data set [1], the “Effect on the plasma protein binding of metoprolol” value (from here on “Effect”) was “unlikely to affect”.
As to `O=C(O)/C=C/c1ccccc1` [Cinnamic acid, cinnamic acid], the “Effect” value in data set [1] is recorded as “unlikely to affect”.
Regarding `CC1(C)[C@@H](O[C@H]2O[C@H](C(=O)O)[C@@H](O)[C@H](O)[C@H]2O[C@@H]2O[C@H](C(=O)O)[C@@H](O)[C@H](O)[C@H]2O)CC[C@]2(C)[C@H]3C(=O)C=C4[C@@H]5C[C@@](C)(C(=O)O)CC[C@]5(C)CC[C@@]4(C)[C@]3(C)CC[C@@H]12` [Glycyrrhizic acid, glycyrrhizic acid], the “Effect” value in data set [1] is reported as “unlikely to affect”.
As to `O=C1C[C@@H](c2ccc(O[C@@H]3O[C@H](CO)[C@@H](O)[C@H](O)[C@H]3O)cc2)Oc2cc(O)ccc21` [Liquiritin, liquiritin], in data set [1], the “Effect” value is reported as “unlikely to affect”.
Turning to `COCCc1ccc(OCC(O)CNC(C)C)cc1` (centres unmarked) [Metoprolol], the fraction unbound (as a rule, free concentration divided by total concentration) at 60 min, 0.5 μg mL^−1 in data set [1] (Plasma protein binding (with cinnamic acid), metoprolol 0.5 μg mL^−1 plus cinnamic acid 1 μg mL^−1, BSA) is 0.741; in data set [1] (Plasma protein binding (with glycyrrhizic acid), metoprolol 0.5 μg mL^−1 plus glycyrrhizic acid 2 μg mL^−1, BSA), 0.721; in data set [1] (Plasma protein binding (with liquiritin), metoprolol 0.5 μg mL^−1 plus liquiritin 2 μg mL^−1, BSA), 0.74; in data set [4] (bovine, BSA solution) it was 0.718. The fraction unbound at 60 min, 1 μg mL^−1 in data set [1] (Plasma protein binding (with cinnamic acid), metoprolol 1 μg mL^−1 plus cinnamic acid 1 μg mL^−1, BSA) was 0.693; in data set [1] (Plasma protein binding (with glycyrrhizic acid), metoprolol 1 μg mL^−1 plus glycyrrhizic acid 2 μg mL^−1, BSA), 0.717; in data set [1] (Plasma protein binding (with liquiritin), metoprolol 1 μg mL^−1 plus liquiritin 2 μg mL^−1, BSA), 0.708; in data set [4] (bovine, BSA solution), 0.703. The free fraction (fraction unbound) at 60 min, 2 μg mL^−1 in data set [1] (Plasma protein binding (with cinnamic acid), metoprolol 2 μg mL^−1 plus cinnamic acid 1 μg mL^−1, BSA) is 0.716; in data set [1] (Plasma protein binding (with glycyrrhizic acid), metoprolol 2 μg mL^−1 plus glycyrrhizic acid 2 μg mL^−1, BSA), 0.704; in data set [1] (Plasma protein binding (with liquiritin), metoprolol 2 μg mL^−1 plus liquiritin 2 μg mL^−1, BSA), 0.701; in data set [4] (bovine, BSA solution), 0.716. Besides, the C free in data set [1] (metoprolol 0.5 μg mL^−1 plus atractylenolide III (0.1 μg mL^−1)) stood at 0.37 ± 0.02 µg/mL; in data set [1] (metoprolol 0.5 μg mL^−1 plus glycyrrhizic acid 2 μg mL^−1), 0.35 ± 0.02 µg/mL; in data set [1] (metoprolol 0.5 μg mL^−1 plus liquiritin 2 μg mL^−1), 0.37 ± 0.01 µg/mL; in data set [1] (metoprolol 1 μg mL^−1 plus atractylenolide III (0.1 μg mL^−1)), 0.70 ± 0.02 µg/mL; in data set [1] (metoprolol 1 μg mL^−1 plus glycyrrhizic acid 2 μg mL^−1) it was 0.72 ± 0.02 µg/mL; in data set [1] (metoprolol 1 μg mL^−1 plus liquiritin 2 μg mL^−1), 0.71 ± 0.03 µg/mL. Besides, the C free was determined as 1.40 ± 0.08 µg/mL in data set [1] (metoprolol 2 μg mL^−1 plus atractylenolide III (0.1 μg mL^−1)), 1.40 ± 0.03 µg/mL in data set [1] (metoprolol 2 μg mL^−1 plus glycyrrhizic acid 2 μg mL^−1) and 1.39 ± 0.03 µg/mL in data set [1] (metoprolol 2 μg mL^−1 plus liquiritin 2 μg mL^−1). For the same compound, the C f in data set [1] (metoprolol 0.5 μg mL^−1 plus cinnamic acid 1 μg mL^−1) is 0.37 ± 0.01 µg/mL; in data set [1] (metoprolol 1 μg mL^−1 plus cinnamic acid 1 μg mL^−1) it was 0.69 ± 0.02 µg/mL; in data set [1] (metoprolol 2 μg mL^−1 plus cinnamic acid 1 μg mL^−1) it was 1.44 ± 0.03 µg/mL; in data set [4] (metoprolol 0.5 μg mL^−1 alone), 0.36 ± 0.01 µg/mL; in data set [4] (metoprolol 1 μg mL^−1 alone), 0.70 ± 0.02 µg/mL; in data set [4] (metoprolol 2 μg mL^−1 alone), 1.45 ± 0.03 µg/mL. For the same compound, the values for the C post in data set [2] (added 0.5 μg mL^−1), in data set [2] (added 1.0 μg mL^−1) and in data set [2] (added 2.0 μg mL^−1) were 0.40 ± 0.02 µg/mL, 0.78 ± 0.03 µg/mL and 1.55 ± 0.05 µg/mL, respectively. The “mean plasma protein binding (PPB)” value in data set [3] was 30.70 ± 2.76%.
